pIC50: −log10 of the molar value. Active and inactive are the calls of the source. No cut-off for these calls is given here.
Assays:
[1] = target: Mitogen-activated protein kinase 14 (Mus musculus, UniProt P47811); assay: Inhibition of murine p38 alpha kinase
Mus musculus [2] = assay: Percentage inhibition against LPS-induced TNF-alpha production in mice at a 2 mg/kg dose; assay type: functional
Mus musculus [3] = assay: Percentage inhibition against LPS-induced TNF-alpha production in mice at a 10 mg/kg dose; assay type: functional
Mus musculus [4] = assay: Percentage inhibition against LPS-induced TNF-alpha production in mice at a 10 mg/kg dose; Not active; assay type: functional, organism-based; set-up: dose 10 mg/kg
MAP kinase p38 = MAP kinase p38 (Homo sapiens, UniProt O15264+Q15759+Q16539+P53778); assay: Inhibition of LPS-induced p38-related TNF-alpha production in human peripheral blood mononuclear cells; assay type: functional

Chain of Mitogen-activated protein kinase 14 (P47811 whole entry): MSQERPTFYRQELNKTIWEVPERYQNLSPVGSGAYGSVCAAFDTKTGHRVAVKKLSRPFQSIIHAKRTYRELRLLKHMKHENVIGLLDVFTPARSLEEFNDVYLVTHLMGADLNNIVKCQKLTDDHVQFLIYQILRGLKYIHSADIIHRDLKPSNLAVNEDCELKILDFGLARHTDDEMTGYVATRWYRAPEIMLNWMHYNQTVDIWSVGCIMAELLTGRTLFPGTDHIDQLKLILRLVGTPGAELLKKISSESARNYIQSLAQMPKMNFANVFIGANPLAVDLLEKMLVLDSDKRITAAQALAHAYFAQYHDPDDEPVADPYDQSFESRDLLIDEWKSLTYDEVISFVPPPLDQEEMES

`C[C@H](Nc1nccc(-c2c(-c3ccccc3)nc3nc(N)ccn23)n1)c1ccccc1` showed a pIC50 [1] of 8.10, an inhibition in vivo at 2 mg/kg (Mus musculus [2]) of 83% and an inhibition in vivo at 10 mg/kg (Mus musculus [3]) of 100%.

`Nc1ccn2c(-c3ccnc(N[C@H]4CCCc5ccccc54)c3)c(-c3ccccc3)nc2n1` was tested, and the pIC50 [1] was 8.10 and the inhibition (Mus musculus [4]) was “inactive”.

With `Nc1ccn2c(-c3ccncc3)c(-c3ccc(F)cc3)nc2n1` the pIC50 [1] was 6.24 and the inhibition in vivo at 10 mg/kg (Mus musculus [3]) was 97%.

For `COC[C@H](C)Nc1cc(-c2c(-c3ccccc3)nc3nc(N)ccn23)ccn1`, the pIC50 [1] was 8.70 and the inhibition in vivo at 10 mg/kg (Mus musculus [3]) was 93%.

For `Nc1ccn2c(-c3ccnc(NCc4ccccc4)c3)c(-c3ccc(F)cc3)nc2n1`, the pIC50 [1] was 8.22, the IC50 (MAP kinase p38) was 6 nM and the inhibition in vivo at 10 mg/kg (Mus musculus [3]) was 42%.

`C[C@H](Nc1cc(-c2c(-c3ccccc3)nc3nc(N)ccn23)ccn1)c1ccccc1` was tested, and the pIC50 [1] was 9.00, the inhibition in vivo at 2 mg/kg (Mus musculus [2]) was 34% and the IC50 (MAP kinase p38) was 2 nM. It also gave an inhibition in vivo at 10 mg/kg (Mus musculus [3]) of 96%.

`COc1cc(N)[nH]c2nc(-c3ccc(F)cc3)c(-c3ccncc3)c1-2` gave an inhibition in vivo at 10 mg/kg (Mus musculus [3]) of 75%.

For `C[C@@H](Nc1nccc(-c2c(-c3ccccc3)nc3nc(N)ccn23)n1)c1ccccc1`, the pIC50 [1] was 7.43 and the inhibition in vivo at 10 mg/kg (Mus musculus [3]) was 66%.

`COc1nccc(-c2c(-c3ccccc3)nc3nc(N)ccn23)n1` was tested, and the pIC50 [1] was 6.68, the IC50 (MAP kinase p38) was 90 nM and the inhibition in vivo at 10 mg/kg (Mus musculus [3]) was 87%.

For `Fc1ccc(-c2[nH]c3ccc4[nH]c(Cc5ccccc5)nc4c3c2-c2ccncc2)cc1`, the pIC50 [1] was 7.66 and the inhibition in vivo at 10 mg/kg (Mus musculus [3]) was 70%.

`CSc1nccc(-c2c(-c3ccccc3)nc3nc(N)ccn23)n1` showed a pIC50 [1] of 6.34, an IC50 (MAP kinase p38) of 28 nM and an inhibition in vivo at 10 mg/kg (Mus musculus [3]) of 23%.

Compound `Nc1ccn2c(-c3ccncn3)c(-c3ccccc3)nc2n1` has a pIC50 [1] of 6.00, an IC50 (MAP kinase p38) of 304 nM and an inhibition in vivo at 10 mg/kg (Mus musculus [3]) of 73%.
